Reference: patent publication US7893090B2, “N-aroyl cyclic amine derivatives as orexin receptor antagonists” (SmithKline Beecham Limited, priority 2001, dated 2011)

Assays:
[1] = Rat sleep/EEG studies after central administration; format: in vivo; conditions: central administration at the onset of the normal sleep period; at the expense of paradoxical sleep and slow wave sleep 2
Description: Therefore antagonists of its receptor may be useful in the treatment of sleep disorders including insomnia.

[2] = central administration, freely-feeding rats, 4 hour time period; cited from earlier work

## orexin-A: ligand for the orexin-1 receptor, an agonist of the orexin receptors; 33-residue peptide, SEQ ID NO:1 (EPLPDCCRQKTCSCRLYELLHGAGNHAAGILTLNH; Homo sapien)
[1]
  arousal in rat sleep/EEG: dose-related increase in arousal
[2]
  increase in food intake over control rats receiving vehicle: approximately four-fold
